Source: patent US20210077479A1, “FORMULATIONS OF PIMAVANSERIN” (ACADIA Pharmaceuticals Inc., priority 2017, published 2021)

Tests used:
[1] = system: DOI ((±)-2,5-dimethoxy-4-iodoamphetamine, a serotonin agonist) induced head twitches; details: rat, oral doses of 3 and 10 mg/kg; cited from earlier work
[2] = Laser light scattering particle size analysis (Malvern Mastersizer 2000); assay type: physicochemical; details: FIG. 4 / FIG. 5
Text: The small quantity of water, its application using appropriate water atomization and/or water application rate are important reasons for the improved properties of pimavanserin. […] The actual amount of water to be sprayed at the granulation of pimavanserin may vary from batch to batch (depending on surrounding factors such as humidity, temperature, exact properties of the API batch, etc) but is still consider to be a small amount, e.g. 3-10% w/w based on the dry ingredients. The amount of water and the granulation process disclosed herein is controlled by controlling the impeller energy to achieve the targeted impeller speed. The appropriate impeller speed ensures sufficient mixing and controls the growth of granules. The specific small amount of water needed for each batch is controlled by the power consumption (amperage) of the granulator, i.e., if the amperage is […], additional amounts of water could be sprayed to the granulate in order to obtain pimavanserin having the properties desired in order to pharmaceutically manufacture capsules comprising 5-34 mg pimavanserin. […] The properties are achieved via a manufacturing process that includes granulation, using a suitable granulator, e.g. a high shear granulator, simultaneously spraying the adequate amount of water while mixing, followed by screening, and blending appropriate quantities of excipients. […]

[3] = Bulk density according to USP <616>, method 1; assay type: physicochemical
Text: (§1) Can's Index compares the difference between the bulk density and tapped density of a substance to determine its compressibility. The bulk density and the Carr's Index may be determined in accordance with USP<616> (method for performing Bulk and Tapped Densities, method 1) and USP<1174> (definition of powder flow) respectively.
The bulk density of the blended composition is >0.4 g/ml, such as 0.4-0.6 g/ml, such as about 0.5 g/ml determined according to USP <616>, method 1. In some embodiments the bulk density of the composition is >0.4 g/ml, such as about 0.5 g/ml, such as 0.51 g/ml, such as 0.508 g/ml.
The bulk density of pimavanserin granulation is >0.4 g/ml, such as 0.4-0.6 g/ml, such as about 0.5 g/ml, determined according to USP <616>, method 1. In some embodiments the bulk density of the pimavanserin granulation is >0.4 g/ml, such as about 0.5 g/ml, such as 0.51 g/ml, such as 0.508 g/ml.

[4] = Carr's Index (Carr's Compressibility Index), USP <616>/<1174>; assay type: physicochemical
Description: as §1
Table 1 visualizes that filling of a capsule, in particular a capsule of size 3 or 4 (capsule volumes of 0.30 and 0.21 ml respectively, approximately […] and 85 mg respectively at a bulk density of 0.5 g/ml). As evident from Table 1, native pimavanserin (API) would be challenging for a size 3 capsule and not possible for a capsule of size 4 without improving the bulk density (as comparison 85 mg of pimavanserin granulation would require about 0.17 ml compared to 0.29 nil for the native API) and flowability (Carr index is frequently used in pharmaceutical manufacturing as an indication of the flowability of a powder, e.g. 2016 U.S. Pharmacopoeia-National Formulary [USP 35 NF 30]).

| Compound | activity against DOI induced head twitches [1] | particle size distribution D90 [2] | Bulk density according to USP <616> [3] | volume required for 85 mg ([3]; 85 mg of powder, from bulk density) [mL] | Carr's Index [4] |
| --- | --- | --- | --- | --- | --- |
| CC(C)COc1ccc(CNC(=O)N(Cc2ccc(F)cc2)C2CCN(C)CC2)cc1 [Pimavanserin, N-(1-methylpiperidin-4-yl)-N-(4-fluorophenylmethyl)-N′-(4-(2-methylpropyloxy)phenylmethyl)carbamide] | effective | – | – | – | – |
| pimavanserin tartrate [Native API] | – | about 30 μm | 0.294 (n = 2) g/ml | 0.29 | 36 (n = 2) |
